Blank lines part the entries; values can stand above or below the compound they belong to.
Columns and labels:
[1] = Solubility in solutions simulating gastric juice and intestinal fluid; assay type: physicochemical
Description: The following table (Table 4) illustrates the solubility of two different compounds, NP16-XL-016 (hereinafter as “IM032”) and NP16-XL-061 (hereinafter as “IM032-C1”), in two solutions with different pH values simulating the pH of gastric juice and human intestinal fluid using HCl and phosphate buffer respectively.

[2] = tested on: non-pigmented strain RN6390; test: Hydrogen peroxide susceptibility assay, non-pigmented strain; assay type: cell-based, Staphylococcus aureus
Procedure: (§1) S. aureus was grown in BHI with or without NP16 (40 μM). After 2 days, bacteria were washed twice in PBS, diluted to a concentration of 1×10^7 CFUs per 100 μl reaction mixture in a 96-well plate. Hydrogen peroxide (H2O2) in PBS was added to a 440 mM final concentration, and the plate was incubated for 1 hr at 37° C. with shaking. The reaction was stopped by the addition of 1,000 U/ml of exogenous catalase (Sigma-Aldrich, St. Louis, MO), and bacterial viability was assessed by plating dilutions on BHI agar plates.

[3] = tested on: MDCK cells; test: Cytotoxic activity on MDCK cells; assay type: cell-based
[4] = tested on: clinical isolate S. aureus strain AE052; test: Murine intraperitoneal infection model, kidney CFU; assay type: in vivo, Staphylococcus aureus
Procedure: (§2) For other S. aureus sub-type, eight-to ten-week-old female BALB/c mice were injected intraperitoneally (i.p) with 4×10^8 CFUs of early stationary phase S. aureus COL. After 3 d, animals were euthanized, the liver and spleen were isolated, homogenized in PBS, and plated on to obtain viable counts. For the treatment study, mice were randomized into two groups at the start of the experiment and administered, i.p., either 0.35 mg of NP16 or PBS with 5% Tween-80 as a control, twice per day, starting on d-1 to d 2 (a total of eight doses for each). Intraperitoneal challenge with 4×10^8 CFUs of early stationary phases S. aureus COL was performed on d 0. The mice were sacrificed on d 3 for enumeration of bacterial CFUs in liver and spleen homogenates.
For the clinical isolate S. aureus strain AE052, all operations were similar to those used for the COL strain, except 10^8 CFUs of early stationary phase bacteria were used in the infection model, and kidneys were collected for monitoring bacterial loads. Statistics were performed using the Student's t-test (GraphPad Prism).

[5] = tested on: S. aureus COL; test: Bactericidal activity of human polymorphonuclear leukocytes (neutrophil killing); assay type: cell-based, Staphylococcus aureus; conditions: NP16-treated S. aureus COL
Procedure: The killing of S. aureus by human polymorphonuclear leukocytes (PMNs) was determined as previously described, with some modifications. Briefly, PMNs (10^6) were mixed with ˜10^7 opsonized S. aureus bacteria MOI=10 in 24-well tissue culture plates. After centrifuged at 380 g for 8 min, plates were incubated at 37° C. for up to 1.5 h. PMNs were lysed with saponin (20 min on ice) and plated on BHIA plates. The percent survival was calculated by normalized with time zero. Statistics were performed with the Student's t-test (GraphPad Prism).

[6] = tested on: S. aureus COL; test: Murine intraperitoneal infection model, liver and spleen CFU; assay type: in vivo, Staphylococcus aureus; conditions: BALB/c mice, i.p. S. aureus COL; 0.35 mg twice per day (days -1, 0, 1 and 2); 72 hours; P<0.01
Procedure: as §2

[7] = tested on: S. aureus COL; test: Hydrogen peroxide susceptibility assay; assay type: cell-based, Staphylococcus aureus; conditions: S. aureus COL grown with NP16 (40 μM); 440 mM H2O2, 1 hr
Procedure: as §1

[8] = tested on: methicillin-resistant S. aureus (MRSA); test: Mouse MRSA skin infection model, wound closure; assay type: in vivo, Staphylococcus aureus
Description: Visual wound healing/closure in different treatment groups of mice can be observed in FIG. 11B.

[9] = tested on: MRSA USA 300 ATCC BAA-1717; test: Mouse (LD0-20) bacteremia model, bacterial counts in organs; assay type: in vivo, Staphylococcus aureus; conditions: BALB/c mice, IV MRSA USA 300 ATCC BAA-1717; IM032 0.3-30 mg/kg PO BID 7 days; Day 7
Procedure: A bacterial strain, USA 300 MRSA BAA-1717, was used to infect BALB/c (female). Test animals were intravenously (IV) inoculated with MRSA ATCC BAA-1717 at a target density of 1×10^6 CFU/mouse. Test substance, IM032 at 0, 0.3, 1, 3, 10, and 30 mg/kg, was administered orally (PO) twice daily (BID) for a total of 7 dosing days.
The reference agents, vancomycin at 3 mg/kg was administered IV once (QD) at 1 h after infection for 7 consecutive days.
With reference to FIG. 9, the animals were IV inoculated with MRSA USA 300 ATCC BAA-1717 at 1.02×10^6 CFU/mouse. IM032 at 0.3, 1, 3, 10, and 30 mg/kg were orally (PO) administrated twice daily (BID) at 1 and 7 h after the infection on Day 1, and then twice daily at 6-hour intervals in the next 6 days for a total of 7 days of dosing. Vancomycin, at 3 mg/kg, was administered intravenously (IV) at 1 h after the infection on Day 1 and then once a day in the next 6 days for a total of 7 days of dosing. All the test animals in the IM032 treatment, reference vancomycin and the vehicle control groups were sacrificed at 168 hours (Day 7) after the infection. […] Statistical significance compared to the respective vehicle control was determined by unpaired student t-tests. […]
With reference to FIG. 10, bacterial density in lung and liver were determined. […] Statistical significance compared to the respective vehicle control was determined by unpaired student t-tests. […]

[10] = tested on: 10 different Staphylococcus aureus (S. aureus) strains; test: Inhibition of staphyloxanthin production by IM032 in different S. aureus strains (overall); assay type: cell-based; conditions: any concentration of IM032 (up to 4,000 nM)
Procedure: Compound IM032 was evaluated for its in vitro efficacy to inhibit staphyloxanthin production in 10 different Staphylococcus aureus (S. aureus) strains, SH1000, HG003, ATCC29213, ATCC700698, COL, JE2, LAC, USA300-3, Newman and ST239III.
The test item was dissolved at 44.9 mg/mL in DMSO at 37° C., aliquoted into several tubes, and stored at −20° C. until use. On the day of testing, a stock solution was serially diluted to testing concentrations with DMSO. All solutions were vortexed and mixed with a pipette to achieve homogeneity immediately before dilution. A correction factor for purity was not applied to the test item preparations.
Each test item solution (6 μL) was combined with 0.6 mL of S. aureus culture in brain heart infusion broth (CFU per well=1×10^7). 12-wells repeats were performed for each concentration in 96-well 2-mL plates. The plates were then incubated in a shaker at 37° C., 250 rpm for 24 hours. […] After centrifugation, 100 μL of supernatant was transferred to a 96-well cell culture plate and OD450 was measured. The relative pigment production at each tested concentration was calculated as follows: […]
The IC50 for each test was determined based on the calculated inhibition ratio from above with Prism 6.0 by employing a non-linear regression (four parameters) fitting method with assigned bottom and top at 0.05 and 0.95 respectively. […]

Solubility in pH 2 (0.1N HCl + 0.1% Tween 80) - simulating human stomach ([1]; pH 2): <LOQ
SMILES: O=C(/C=C/c1ccccc1Cl)Nc1ccc(S(=O)(=O)N2CCCCC2)cc1 [IM032-Cl, 3-(6-chlorophenyl)-N-[4-(1-piperidine-1-sulfonyl)phenyl] acrylamide]

SMILES: O=C(/C=C/c1ccccc1)Nc1ccc(S(=O)(=O)N2CCCC2)cc1 [NP16, 3-phenyl-N-[4-(1-pyrrolidinyl-sulfonyl)phenyl]acrylamide]
susceptibility to hydrogen peroxide killing irrespective of treatment [2]: similar
effect on the growth of MDCK cells (cytotoxic activity) [3]: no effect
mice with kidney bacterial counts below the detection threshold ([4]; AE052 infection, n=10, control group 2 of 10): 6 of 10
bacterial counts in the kidneys versus control group ([4]; mice infected with AE052, 0.35 mg twice per day, P<0.001): significantly lower
susceptibility to killing by neutrophils [5]: increased susceptibility
bacterial counts in the livers and spleens versus control group [6]: significantly lower
susceptibility to killing by hydrogen peroxide [7]: increased susceptibility

SMILES: O=C(/C=C/c1ccccc1Br)Nc1ccc(S(=O)(=O)N2CCCCC2)cc1 [NP16-XL-016, 3-(6-bromophenyl)-N-[4-(1-piperidine-1-sulfonyl)phenyl] acrylamide]
wound healing compared with 2% Mupirocin and Linezolid ([8]; oral 30 mg/kg twice a day): statistically significant improvement
visual wound healing (observed size of the closure) among the three groups ([8]; oral BID for 7 days, FIG. 11B): best visual wound healing
bacteria count across major organs [9]: statistically significant reduction
bactericidal effect (reduction in optical density) [10]: not observed
solubility in two biorelevant media relative to IM032-C1 ([1]; pH 2 and pH 7.4, fold higher than IM032-C1): > 20 ×
